US12559502B2, “Thieno pyrimidines as ferroportin inhibitors” (Global Blood Therapeutics, Inc., priority 2020, dated 2026)

What follows are compounds tested against T1, human ferroportin (Homo sapiens, UniProt Q9NP59) (assay: In-vitro ferroportin internalization assay (luciferase reporter)). Settings: average pEC50; stably-transfected CHO cell line expressing human ferroportin tagged to a luciferase reporter; 6 h incubation with test compound; luciferase activity (Nano-Glo).
T1 construct: expressed in transfected cells; host or cells: CHO cells, stably transfected, doxycycline-inducible
T1 sequence (Q9NP59 1-571): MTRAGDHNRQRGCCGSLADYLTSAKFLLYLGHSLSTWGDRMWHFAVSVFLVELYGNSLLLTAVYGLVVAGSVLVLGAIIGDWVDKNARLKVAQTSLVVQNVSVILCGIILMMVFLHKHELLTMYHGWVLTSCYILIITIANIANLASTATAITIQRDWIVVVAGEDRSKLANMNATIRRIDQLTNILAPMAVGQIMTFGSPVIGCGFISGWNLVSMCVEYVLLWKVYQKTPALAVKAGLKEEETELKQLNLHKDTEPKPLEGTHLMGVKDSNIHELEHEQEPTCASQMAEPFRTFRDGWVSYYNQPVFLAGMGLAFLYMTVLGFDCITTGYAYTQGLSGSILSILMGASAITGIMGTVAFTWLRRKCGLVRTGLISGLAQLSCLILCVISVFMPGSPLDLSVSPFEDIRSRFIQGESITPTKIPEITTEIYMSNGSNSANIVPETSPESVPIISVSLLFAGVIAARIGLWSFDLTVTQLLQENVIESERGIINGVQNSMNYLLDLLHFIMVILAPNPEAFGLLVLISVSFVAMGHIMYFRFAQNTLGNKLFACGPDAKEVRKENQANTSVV
Type: cell-based
Procedure: The protocol for this assay is generally as described in WO2018/128828, incorporated herein by reference in its entirety. Functional internalization of ferroportin protein was measured using a stably-transfected CHO cell line expressing the human ferroportin tagged to a luciferase reporter. Cells were plated for 24 h in the presence of ferric ammonium citrate (FAC). Ferroportin protein expression was induced with doxycycline for 24 h. The next day, the compounds were added. Test compounds were dissolved in DMSO. Cells were incubated with the test compounds for 6 h, and subsequently luciferase activity was measured using the Nano-Glo Luciferase Assay System and Glomax (Promega, Madison, WI).
The average pEC50 was determined for the test compounds.

Structure (SMILES)	pEC50
COc1ccc(NC(=O)CN(C)c2nc(-c3cc(OCCO)ccn3)nc3sc(C)cc23)cn1 [Compound 16, 2-({2-[4-(2-hydroxyethoxy)pyridin-2-yl]-6-methylthieno[2,3-d]pyrimidin-4-yl}(methyl)amino)-N-(6-methoxypyridin-3-yl)acetamide]	7.6
COc1ccnc(-c2nc(N(C)CC(=O)Nc3ccc(OC)nc3)c3ccsc3n2)c1 [Compound 7, 2-{[2-(4-methoxypyridin-2-yl)thieno[2,3-d]pyrimidin-4-yl](methyl)amino}-N-(6-methoxypyridin-3-yl)acetamide]	6.6
Cc1sc2nc(-c3cc(OCCO)ccn3)nc(N(C)CC(=O)Nc3cccc(F)c3)c2c1C [Compound 9, N-(3-fluorophenyl)-2-({2-[4-(2-hydroxyethoxy)pyridin-2-yl]-5,6-dimethylthieno[2,3-d]pyrimidin-4-yl}(methyl)amino)acetamide]	7.7
COc1ccc(NC(=O)CN(C)c2nc(-c3cc(OCCO)ccn3)nc3sc(C)c(C)c23)cn1 [Compound 11, 2-([2-[4-(2-hydroxyethoxy)pyridin-2-yl]-5,6-dimethylthieno[2,3-d]pyrimidin-4-yl](methyl)amino)-N-(6-methoxypyridin-3-yl)acetamide]	7.5
COc1cccc(NC(=O)CN(C)c2nc(-c3cc(OCCO)ccn3)nc3sc(C)c(C)c23)c1 [Compound 8, 2-({2-[4-(2-hydroxyethoxy)pyridin-2-yl]-5,6-dimethylthieno[2,3-d]pyrimidin-4-yl}(methyl)amino)-N-(3-methoxyphenyl)acetamide]	7.8
COc1ccc(NC(=O)CN(C)c2nc(-c3cc(OCCO)ccn3)nc3scc(C)c23)cn1 [Compound 17, 2-({2-[4-(2-hydroxyethoxy)pyridin-2-yl]-5-methylthieno[2,3-d]pyrimidin-4-yl}(methyl)amino)-N-(6-methoxypyridin-3-yl)acetamide]	7.7
Cc1ccc(NC(=O)CN(C)c2nc(-c3cn(C)cn3)nc3sc(C)c(C)c23)cn1 [Compound 12, 2-{[5,6-dimethyl-2-(1-methyl-1H-imidazol-4-yl)thieno[2,3-d]pyrimidin-4-yl](methyl)amino}-N-(6-methylpyridin-3-yl)acetamide]	7.1
COc1ccc(NC(=O)CN(C)c2nc(-c3cn(C)cn3)nc3sc(C)c(C)c23)cn1 [Compound 13, 2-{[5,6-dimethyl-2-(1-methyl-1H-imidazol-4-yl)thieno[2,3-d]pyrimidin-4-yl](methyl)amino}-N-(6-methoxypyridin-3-yl)acetamide]	7.1

Now from value to compound:

pEC50	Structure (SMILES)
7.6	Cc1ccc(NC(=O)CN(C)c2nc(-c3cc(OCCO)ccn3)nc3sc(C)c(C)c23)cn1 [Compound 10, 2-({2-[4-(2-hydroxyethoxy)pyridin-2-yl]-5,6-dimethylthieno[2,3-d]pyrimidin-4-yl}(methyl)amino)-N-(6-methylpyridin-3-yl)acetamide]
7	Cc1sc2nc(-c3cn(C)cn3)nc(N(C)CC(=O)NC(C)(C)C)c2c1C [Compound 14, N-tert-butyl-2-{[5,6-dimethyl-2-(1-methyl-1H-imidazol-4-yl)thieno[2,3-d]pyrimidin-4-yl](methyl)amino}acetamide]
7.5	Cc1sc2nc(-c3cc(OCCN(C)C)ccn3)nc(N(C)CC(=O)NC3(C(F)(F)F)CC3)c2c1C [Compound 22, 2-[(2-{4-[2-(dimethylamino)ethoxy]pyridin-2-yl}-5,6-dimethylthieno[2,3-d]pyrimidin-4-yl)(methyl)amino]-N-[1-(trifluoromethyl)cyclopropyl]acetamide]
8.2	Cc1sc2nc(-c3cc(OCCN4C[C@@H]5C[C@H]4CO5)ccn3)nc(N(C)CC(=O)NC(C)(C)C)c2c1C [Compound 23, N-tert-butyl-2-{[5,6-dimethyl-2-(4-{2-[(1S,4S)-2-oxa-5-azabicyclo[2.2.1]heptan-5-yl]ethoxy}pyridin-2-yl)thieno[2,3-d]pyrimidin-4-yl](methyl)amino}acetamide]
7.8	Cc1sc2nc(-c3cc(OCCO)ccn3)nc(N(C)CC(=O)NC(C)(C)C)c2c1C [Compound 15, N-tert-butyl-2-({2-[4-(2-hydroxyethoxy)pyridin-2-yl]-5,6-dimethylthieno[2,3-d]pyrimidin-4-yl}(methyl)amino)acetamide]
8	Cc1sc2nc(-c3cc(OCCn4ccnc4)ccn3)nc(N(C)CC(=O)NC(C)(C)C)c2c1C [Compound 24, N-tert-butyl-2-[(2-{4-[2-(1H-imidazol-1-yl)ethoxy]pyridin-2-yl}-5,6-dimethylthieno[2,3-d]pyrimidin-4-yl)(methyl)amino]acetamide]
7.6	Cc1sc2nc(-c3cc(O[C@@H]4CCN(C)C4)ccn3)nc(N(C)CC(=O)NC(C)(C)C)c2c1C [Compound 19, N-tert-butyl-2-{[5,6-dimethyl-2-(4-{[(3R)-1-methylpyrrolidin-3-yl]oxy}pyridin-2-yl)thieno[2,3-d]pyrimidin-4-yl](methyl)amino}acetamide]
8	Cc1sc2nc(-c3cc(OCCN4CCOCC4)ccn3)nc(N(C)CC(=O)NC(C)(C)C)c2c1C [Compound 20, N-tert-butyl-2-[(5,6-dimethyl-2-{4-[2-(morpholin-4-yl)ethoxy]pyridin-2-yl}thieno[2,3-d]pyrimidin-4-yl)(methyl)amino]acetamide]
7.8	Cc1sc2nc(-c3cc(OCCN(C)C)ccn3)nc(N(C)CC(=O)NC(C)(C)C)c2c1C [Compound 18, N-tert-butyl-2-[(2-{4-[2-(dimethylamino)ethoxy]pyridin-2-yl}-5,6-dimethylthieno[2,3-d]pyrimidin-4-yl)(methyl)amino]acetamide]
7.8	Cc1sc2nc(-c3cc(OCCN4CCN(C)CC4)ccn3)nc(N(C)CC(=O)NC(C)(C)C)c2c1C [Compound 21, N-tert-butyl-2-[(5,6-dimethyl-2-{4-[2-(4-methylpiperazin-1-yl)ethoxy]pyridin-2-yl}thieno[2,3-d]pyrimidin-4-yl)(methyl)amino]acetamide]
